System: Metabolism protein genes
Experiment: DNA chip mRNA expression in yeast, metabolism protein genes (Table 7)
Assay type: cell-based, Saccharomyces cerevisiae S288C
Outline: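 First, S288C yeast grown in YPD at 25° C. are dosed in log phase with one toxicant (growth-inhibiting, not lethal) for 2 h. Next, total RNA is extracted and poly(A) mRNA isolated and reverse-transcribed with Cy3/Cy5-dUTP. Finally, whole-genome chip fluorescence is read relative to unexposed cells.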

In the case of “manganese ethylenebis(dithiocarbamate) [(8)]”, the “The level of expressed mRNA in the presence of chemical substance/The level of expressed mRNA in the absence of chemical substance” value (yeast gene YJR155W) is reported as 10.6, the “The level of expressed mRNA in the presence of chemical substance/The level of expressed mRNA in the absence of chemical substance” value (yeast gene YKL035W) is reported as 1.0 and the “level of expressed mRNA in the presence/in the absence of chemical substance” value (yeast gene YKL060C) is reported as 1.1. For the same substance, the “The level of expressed mRNA in the presence of chemical substance/The level of expressed mRNA in the absence of chemical substance” value (yeast gene YKL091C) was 1.3, the “The level of expressed mRNA in the presence of chemical substance/The level of expressed mRNA in the absence of chemical substance” value (yeast gene YKL104C) was 1.1 and the “level of expressed mRNA in the presence/in the absence of chemical substance” value (yeast gene YKL148C) was 0.8. The “The level of expressed mRNA in the presence of chemical substance/The level of expressed mRNA in the absence of chemical substance” value (yeast gene YKL152C) was 1.0, the “level of expressed mRNA in the presence/in the absence of chemical substance” value (yeast gene YKL157W) was 1.1 and the “The level of expressed mRNA in the presence of chemical substance/The level of expressed mRNA in the absence of chemical substance” value (yeast gene YKL213C) was 1.1. For the same substance, the “The level of expressed mRNA in the presence of chemical substance/The level of expressed mRNA in the absence of chemical substance” value (yeast gene YKL215C) was 1.1, the “level of expressed mRNA in the presence/in the absence of chemical substance” value (yeast gene YKR034W) was 1.5 and the “The level of expressed mRNA in the presence of chemical substance/The level of expressed mRNA in the absence of chemical substance” value (yeast gene YLL058W) was 0.9. For the same substance, the “level of expressed mRNA in the presence/in the absence of chemical substance” value (yeast gene YLR006C) was 0.9, the “level of expressed mRNA in the presence/in the absence of chemical substance” value (yeast gene YLR044C) was 0.7 and the “level of expressed mRNA in the presence/in the absence of chemical substance” value (yeast gene YLR056W) was 0.9. For the same substance, the “level of expressed mRNA in the presence/in the absence of chemical substance” value (yeast gene YLR058C) was 0.3, the “level of expressed mRNA in the presence/in the absence of chemical substance” value (yeast gene YLR081W) was 0.9 and the “level of expressed mRNA in the presence/in the absence of chemical substance” value (yeast gene YLR089C) was 0.7. The “The level of expressed mRNA in the presence of chemical substance/The level of expressed mRNA in the absence of chemical substance” value (yeast gene YLR180W) was 0.9, the “The level of expressed mRNA in the presence of chemical substance/The level of expressed mRNA in the absence of chemical substance” value (yeast gene YLR273C) was 1.3 and the “level of expressed mRNA in the presence/in the absence of chemical substance” value (yeast gene YLR284C) was 1.2. The “The level of expressed mRNA in the presence of chemical substance/The level of expressed mRNA in the absence of chemical substance” value (yeast gene YLR299W) was 1.0, the “The level of expressed mRNA in the presence of chemical substance/The level of expressed mRNA in the absence of chemical substance” value (yeast gene YLR300W) was 0.8 and the “level of expressed mRNA in the presence/in the absence of chemical substance” value (yeast gene YLR304C) was 0.6. For the same substance, the “The level of expressed mRNA in the presence of chemical substance/The level of expressed mRNA in the absence of chemical substance” value (yeast gene YLR307W) was 1.2, the “The level of expressed mRNA in the presence of chemical substance/The level of expressed mRNA in the absence of chemical substance” value (yeast gene YLR348C) was 0.9 and the “level of expressed mRNA in the presence/in the absence of chemical substance” value (yeast gene YLR354C) was 1.4. For the same substance, the “level of expressed mRNA in the presence/in the absence of chemical substance” value (yeast gene YLR372W) was 0.9, the “level of expressed mRNA in the presence/in the absence of chemical substance” value (yeast gene YML022W) was 1.1 and the “The level of expressed mRNA in the presence of chemical substance/The level of expressed mRNA in the absence of chemical substance” value (yeast gene YML054C) was 1.5. For the same substance, the “The level of expressed mRNA in the presence of chemical substance/The level of expressed mRNA in the absence of chemical substance” value (yeast gene YML070W) was 1.3, the “The level of expressed mRNA in the presence of chemical substance/The level of expressed mRNA in the absence of chemical substance” value (yeast gene YML100W) was 0.7 and the “The level of expressed mRNA in the presence of chemical substance/The level of expressed mRNA in the absence of chemical substance” value (yeast gene YMR008C) was 0.5. For the same substance, the “level of expressed mRNA in the presence/in the absence of chemical substance” value (yeast gene YMR011W) was 1.1, the “level of expressed mRNA in the presence/in the absence of chemical substance” value (yeast gene YMR015C) was 0.7 and the “The level of expressed mRNA in the presence of chemical substance/The level of expressed mRNA in the absence of chemical substance” value (yeast gene YMR020W) was 1.2. For the same substance, the “level of expressed mRNA in the presence/in the absence of chemical substance” value (yeast gene YMR083W) was 1.1, the “The level of expressed mRNA in the presence of chemical substance/The level of expressed mRNA in the absence of chemical substance” value (yeast gene YMR105C) was 1.1 and the “The level of expressed mRNA in the presence of chemical substance/The level of expressed mRNA in the absence of chemical substance” value (yeast gene YMR189W) was 0.4. The “level of expressed mRNA in the presence/in the absence of chemical substance” value (yeast gene YMR205C) was 0.7, the “level of expressed mRNA in the presence/in the absence of chemical substance” value (yeast gene YMR261C) was 0.7 and the “The level of expressed mRNA in the presence of chemical substance/The level of expressed mRNA in the absence of chemical substance” value (yeast gene YMR271C) was 1.8. For the same substance, the “The level of expressed mRNA in the presence of chemical substance/The level of expressed mRNA in the absence of chemical substance” value (yeast gene YMR296C) was 0.5, the “level of expressed mRNA in the presence/in the absence of chemical substance” value (yeast gene YMR323W) was 0.8 and the “The level of expressed mRNA in the presence of chemical substance/The level of expressed mRNA in the absence of chemical substance” value (yeast gene YNL012W) was 1.8. For the same substance, the “level of expressed mRNA in the presence/in the absence of chemical substance” value (yeast gene YNL025C) was 1.0, the “The level of expressed mRNA in the presence of chemical substance/The level of expressed mRNA in the absence of chemical substance” value (yeast gene YNL045W) was 0.7 and the “The level of expressed mRNA in the presence of chemical substance/The level of expressed mRNA in the absence of chemical substance” value (yeast gene YNL104C) was 0.9. For the same substance, the “The level of expressed mRNA in the presence of chemical substance/The level of expressed mRNA in the absence of chemical substance” value (yeast gene YNL106C) was 0.8, the “The level of expressed mRNA in the presence of chemical substance/The level of expressed mRNA in the absence of chemical substance” value (yeast gene YNL169C) was 0.8 and the “level of expressed mRNA in the presence/in the absence of chemical substance” value (yeast gene YNL192W) was 0.8. The “The level of expressed mRNA in the presence of chemical substance/The level of expressed mRNA in the absence of chemical substance” value (yeast gene YNL231C) was 1.5, the “The level of expressed mRNA in the presence of chemical substance/The level of expressed mRNA in the absence of chemical substance” value (yeast gene YNL322C) was 0.7 and the “The level of expressed mRNA in the presence of chemical substance/The level of expressed mRNA in the absence of chemical substance” value (yeast gene YNL331C) was 13.1. For the same substance, the “The level of expressed mRNA in the presence of chemical substance/The level of expressed mRNA in the absence of chemical substance” value (yeast gene YNL332W) was 1.5, the “The level of expressed mRNA in the presence of chemical substance/The level of expressed mRNA in the absence of chemical substance” value (yeast gene YNR019W) was 0.7 and the “The level of expressed mRNA in the presence of chemical substance/The level of expressed mRNA in the absence of chemical substance” value (yeast gene YNR033W) was 1.1. For the same substance, the “The level of expressed mRNA in the presence of chemical substance/The level of expressed mRNA in the absence of chemical substance” value (yeast gene YNR059W) was 1.3, the “The level of expressed mRNA in the presence of chemical substance/The level of expressed mRNA in the absence of chemical substance” value (yeast gene YOL058W) was 1.6 and the “level of expressed mRNA in the presence/in the absence of chemical substance” value (yeast gene YOL086C) was 0.8. The “level of expressed mRNA in the presence/in the absence of chemical substance” value (yeast gene YOL108C) was 1.3, the “level of expressed mRNA in the presence/in the absence of chemical substance” value (yeast gene YOL116W) was 1.3 and the “The level of expressed mRNA in the presence of chemical substance/The level of expressed mRNA in the absence of chemical substance” value (yeast gene YOL126C) was 0.9. For the same substance, the “The level of expressed mRNA in the presence of chemical substance/The level of expressed mRNA in the absence of chemical substance” value (yeast gene YOL153C) was 1.0, the “level of expressed mRNA in the presence/in the absence of chemical substance” value (yeast gene YOL156W) was 1.0 and the “The level of expressed mRNA in the presence of chemical substance/The level of expressed mRNA in the absence of chemical substance” value (yeast gene YOL165C) was 17.8. The “level of expressed mRNA in the presence/in the absence of chemical substance” value (yeast gene YOR002W) was 0.9, the “level of expressed mRNA in the presence/in the absence of chemical substance” value (yeast gene YOR085W) was 0.7 and the “The level of expressed mRNA in the presence of chemical substance/The level of expressed mRNA in the absence of chemical substance” value (yeast gene YOR099W) was 0.9. The “level of expressed mRNA in the presence/in the absence of chemical substance” value (yeast gene YOR103C) was 1.0, the “level of expressed mRNA in the presence/in the absence of chemical substance” value (yeast gene YOR108W) was 0.9 and the “level of expressed mRNA in the presence/in the absence of chemical substance” value (yeast gene YOR128C) was 0.6. The “The level of expressed mRNA in the presence of chemical substance/The level of expressed mRNA in the absence of chemical substance” value (yeast gene YOR130C) was 0.8, the “level of expressed mRNA in the presence/in the absence of chemical substance” value (yeast gene YOR142W) was 0.8 and the “level of expressed mRNA in the presence/in the absence of chemical substance” value (yeast gene YOR176W) was 1.0. For the same substance, the “level of expressed mRNA in the presence/in the absence of chemical substance” value (yeast gene YOR178C) was 0.9, the “level of expressed mRNA in the presence/in the absence of chemical substance” value (yeast gene YOR251C) was 1.1 and the “The level of expressed mRNA in the presence of chemical substance/The level of expressed mRNA in the absence of chemical substance” value (yeast gene YOR336W) was 0.8. For the same substance, the “The level of expressed mRNA in the presence of chemical substance/The level of expressed mRNA in the absence of chemical substance” value (yeast gene YOR347C) was 0.8, the “level of expressed mRNA in the presence/in the absence of chemical substance” value (yeast gene YOR348C) was 0.8 and the “The level of expressed mRNA in the presence of chemical substance/The level of expressed mRNA in the absence of chemical substance” value (yeast gene YPL017C) was 1.3. For the same substance, the “level of expressed mRNA in the presence/in the absence of chemical substance” value (yeast gene YPL028W) was 0.9, the “level of expressed mRNA in the presence/in the absence of chemical substance” value (yeast gene YPL057C) was 1.0 and the “level of expressed mRNA in the presence/in the absence of chemical substance” value (yeast gene YPL135W) was 1.0. For the same substance, the “level of expressed mRNA in the presence/in the absence of chemical substance” value (yeast gene YPL148C) was 0.9, the “The level of expressed mRNA in the presence of chemical substance/The level of expressed mRNA in the absence of chemical substance” value (yeast gene YPR026W) was 1.0 and the “level of expressed mRNA in the presence/in the absence of chemical substance” value (yeast gene YPR113W) was 0.9. For the same substance, the “level of expressed mRNA in the presence/in the absence of chemical substance” value (yeast gene YPR165W) was 1.0, the “The level of expressed mRNA in the presence of chemical substance/The level of expressed mRNA in the absence of chemical substance” value (yeast gene YPR167C) was 5.5 and the “level of expressed mRNA in the presence/in the absence of chemical substance” value (yeast gene YPR183W) was 1.0.

Reference: patent publication US8192962B2, “Processes for detecting toxic substances” (Daikin Industries, Ltd., priority 2001, dated 2012)
